Experimental data as given in patent publication US20080009418A1, “Selective Inhibitors” (Alchemia LTD., priority 2004, published 2008).

How the values were obtained:
[1] = target: T1, Human melanin-concentrating hormone (MCH1) (Homo sapiens, UniProt Q99705); assay: Radioligand binding, human melanin-concentrating hormone MCH1 membranes, FlashPlate, [125I]-S36057; conditions: compound at 10 μM; for A6: inhibition of radioligand binding: [125I]-S36057, human MCH1 membranes
T1 construct: purchased Perkin Elmer Biosignal
T1 sequence (Q99705 whole entry): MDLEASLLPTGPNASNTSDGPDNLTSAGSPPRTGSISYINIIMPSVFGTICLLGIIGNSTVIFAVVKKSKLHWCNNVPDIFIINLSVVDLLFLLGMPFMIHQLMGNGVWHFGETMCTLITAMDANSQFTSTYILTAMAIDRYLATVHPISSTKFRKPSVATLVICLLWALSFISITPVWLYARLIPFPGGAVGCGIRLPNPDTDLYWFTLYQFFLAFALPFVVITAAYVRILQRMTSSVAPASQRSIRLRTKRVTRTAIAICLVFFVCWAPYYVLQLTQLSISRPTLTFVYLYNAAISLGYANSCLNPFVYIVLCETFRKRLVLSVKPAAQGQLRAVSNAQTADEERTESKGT
How it was run: (§1)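 Cloned human receptor membranes were coated onto FlashPlate wells and incubated with radioligand and compound (added from a 0.5 mM DMSO daughter plate) for 1 hour at room temperature in the dark. Scintillation counting gave percent inhibition, with DMSO defining total and reference ligand defining non-specific binding.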

[2] = target: T2, Human neuropeptide Y (NPY-Y1) (Homo sapiens, UniProt P25929); assay: Radioligand binding, human neuropeptide Y NPY-Y1 membranes, FlashPlate, [125I]-PYY; conditions: compound at 10 μM, [125I]-PYY; for A9: inhibition of radioligand binding: human NPY-Y1 membranes
T2 construct: purchased Perkin Elmer Biosignal
T2 sequence (P25929 1-384): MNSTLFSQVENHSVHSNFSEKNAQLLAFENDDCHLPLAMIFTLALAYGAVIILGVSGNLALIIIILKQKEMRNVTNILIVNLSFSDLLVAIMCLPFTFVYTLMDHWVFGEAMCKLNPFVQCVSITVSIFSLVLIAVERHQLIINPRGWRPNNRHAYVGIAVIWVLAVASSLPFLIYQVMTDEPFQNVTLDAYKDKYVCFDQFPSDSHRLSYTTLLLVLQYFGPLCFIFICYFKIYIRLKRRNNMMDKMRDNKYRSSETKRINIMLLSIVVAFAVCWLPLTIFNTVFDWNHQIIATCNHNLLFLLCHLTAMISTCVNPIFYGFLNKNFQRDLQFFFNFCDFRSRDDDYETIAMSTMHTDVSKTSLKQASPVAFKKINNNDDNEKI
How it was run: as §1

Mouse urotensin (mUR2) = target: T3, Mouse urotensin (mUR2) (Mus musculus, UniProt Q8VIH9); assay: Radioligand binding, mouse urotensin mUR2 membranes, FlashPlate, [125I]-Urotensin II; conditions: compound at 10 μM, [125I]-Urotensin II; for A11: inhibition of radioligand binding: mouse mUR2 membranes
T3 construct: purchased Perkin Elmer Biosignal
T3 sequence (Q8VIH9 1-385): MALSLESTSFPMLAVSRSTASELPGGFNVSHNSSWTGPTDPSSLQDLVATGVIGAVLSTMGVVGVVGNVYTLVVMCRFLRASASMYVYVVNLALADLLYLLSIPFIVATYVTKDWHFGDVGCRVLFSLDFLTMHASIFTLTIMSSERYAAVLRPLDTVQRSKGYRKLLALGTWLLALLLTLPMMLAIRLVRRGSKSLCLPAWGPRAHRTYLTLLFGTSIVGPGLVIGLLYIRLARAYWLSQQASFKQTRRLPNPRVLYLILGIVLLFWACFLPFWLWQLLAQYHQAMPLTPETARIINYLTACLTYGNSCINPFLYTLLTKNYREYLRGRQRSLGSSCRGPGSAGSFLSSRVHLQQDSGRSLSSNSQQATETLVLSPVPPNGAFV
How it was run: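 Cloned mouse urotensin (mUR2) receptor membranes from Perkin Elmer Biosignal were immobilized in FlashPlate microplates using a proprietary coating. Each well got 19.5 μl buffer, then 0.5 μl of DMSO, reference ligand, or compound. Adding 5 μl of [125I]-Urotensin II, diluted to 5× final concentration in binding buffer, started binding. Plates were sealed with TopSeal-A and incubated 1 hour at room temperature in the dark. Wells were counted for 30 seconds each on a TopCount after a 60-second delay, and percentage inhibition was calculated.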

Human neurokinin (NK1) = target: T4, Human neurokinin (NK1) (Homo sapiens, UniProt P25103); assay: Radioligand binding, human neurokinin NK1 membranes, filtration, [125I]-Substance P; conditions: compound at 10 μM, [125I]-Substance P; for A8: inhibition of radioligand binding: human NK1 membranes
T4 construct: purchased Perkin Elmer Biosignal
T4 sequence (P25103 whole entry): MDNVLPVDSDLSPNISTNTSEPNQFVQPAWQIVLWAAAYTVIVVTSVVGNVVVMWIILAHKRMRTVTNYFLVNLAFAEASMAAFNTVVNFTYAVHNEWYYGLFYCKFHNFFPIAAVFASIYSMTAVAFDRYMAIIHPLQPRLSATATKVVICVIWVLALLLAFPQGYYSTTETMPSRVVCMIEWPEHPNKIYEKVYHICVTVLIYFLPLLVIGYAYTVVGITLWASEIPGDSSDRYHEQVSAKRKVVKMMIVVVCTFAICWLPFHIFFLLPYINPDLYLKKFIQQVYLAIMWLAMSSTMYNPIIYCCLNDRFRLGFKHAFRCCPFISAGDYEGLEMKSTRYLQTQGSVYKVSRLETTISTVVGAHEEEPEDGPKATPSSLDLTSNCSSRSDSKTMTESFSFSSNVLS
How it was run: (§2)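 Percent inhibition of radioligand binding measured on recombinant human membranes: NK1 with [125I]-Substance P, KOP with [3H]-Diprenorphine. Incubation 1 h at room temperature, then harvest onto 0.3% PEI-soaked filters, cold Tris-HCl pH 7.4 washes and scintillation counting; non-specific binding from reference ligand wells.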

Human opioid (ORL1) = target: T5, Human opioid (ORL1) (Homo sapiens, UniProt P41146); assay: Radioligand binding, human opioid ORL1 membranes, FlashPlate, [125I]-Nociceptin; conditions: compound at 10 μM, [125I]-Nociceptin; for A10: inhibition of radioligand binding: human ORL1 membranes
T5 construct: purchased Perkin Elmer Biosignal
T5 sequence (P41146 whole entry): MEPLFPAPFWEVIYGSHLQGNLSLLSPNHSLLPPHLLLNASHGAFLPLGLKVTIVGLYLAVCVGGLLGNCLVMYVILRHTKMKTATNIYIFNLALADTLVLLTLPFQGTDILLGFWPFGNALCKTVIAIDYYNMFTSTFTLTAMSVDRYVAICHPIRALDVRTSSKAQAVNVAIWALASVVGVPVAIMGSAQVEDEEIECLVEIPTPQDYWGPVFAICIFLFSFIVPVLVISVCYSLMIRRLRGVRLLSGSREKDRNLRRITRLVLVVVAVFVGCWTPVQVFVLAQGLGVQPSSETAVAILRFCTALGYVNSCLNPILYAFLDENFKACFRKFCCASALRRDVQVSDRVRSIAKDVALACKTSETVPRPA
How it was run: as §1

Human δ-opioid (DOP) = target: T6, Human δ-opioid (DOP) (Homo sapiens, UniProt P41143); assay: Radioligand binding, human δ-opioid (DOP) membranes, FlashPlate, [3H]-Bremazocine; conditions: compound at 10 μM, [3H]-Bremazocine; for A1: inhibition of radioligand binding: human DOP membranes
T6 construct: purchased Perkin Elmer Biosignal
T6 sequence (P41143 whole entry): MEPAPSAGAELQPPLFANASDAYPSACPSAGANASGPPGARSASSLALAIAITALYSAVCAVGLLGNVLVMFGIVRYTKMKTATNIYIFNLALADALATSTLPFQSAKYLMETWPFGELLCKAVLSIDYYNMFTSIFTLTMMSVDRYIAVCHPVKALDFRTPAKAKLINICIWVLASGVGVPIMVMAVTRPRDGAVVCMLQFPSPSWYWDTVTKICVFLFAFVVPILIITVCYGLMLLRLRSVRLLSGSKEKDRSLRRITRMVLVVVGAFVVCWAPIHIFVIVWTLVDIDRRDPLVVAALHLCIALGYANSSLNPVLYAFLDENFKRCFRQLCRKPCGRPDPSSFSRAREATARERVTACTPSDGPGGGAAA
How it was run: as §1

Human μ-opioid (MOP) = target: T7, Human μ-opioid (MOP) (Homo sapiens, UniProt P35372); assay: Radioligand binding, human μ-opioid (MOP) membranes, FlashPlate, [3H]-Naloxone; conditions: compound at 10 μM, [3H]-Naloxone; for A7: inhibition of radioligand binding: human MOP membranes
T7 construct: purchased Perkin Elmer Biosignal
T7 sequence (P35372 whole entry): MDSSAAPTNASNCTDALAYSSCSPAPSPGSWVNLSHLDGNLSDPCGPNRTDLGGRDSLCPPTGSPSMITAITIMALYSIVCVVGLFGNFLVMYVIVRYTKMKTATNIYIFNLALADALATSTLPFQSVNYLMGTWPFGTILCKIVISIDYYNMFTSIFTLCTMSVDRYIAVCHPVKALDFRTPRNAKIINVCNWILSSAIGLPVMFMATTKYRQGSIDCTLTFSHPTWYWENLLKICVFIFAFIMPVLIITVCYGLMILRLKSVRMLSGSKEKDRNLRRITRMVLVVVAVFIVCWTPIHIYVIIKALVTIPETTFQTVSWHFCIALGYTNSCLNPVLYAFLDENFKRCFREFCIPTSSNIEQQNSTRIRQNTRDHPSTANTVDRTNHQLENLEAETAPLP
How it was run: as §1

Human Melanocortin (MC4) = target: T8, Human Melanocortin (MC4) (Homo sapiens, UniProt P32245); assay: Radioligand binding, human melanocortin MC4 membranes, FlashPlate, [125I]-NDP-αMSH; conditions: compound at 10 μM, [125I]-NDP-αMSH; for A4: inhibition of radioligand binding: human MC4 membranes
T8 construct: purchased Perkin Elmer Biosignal
T8 sequence (P32245 whole entry): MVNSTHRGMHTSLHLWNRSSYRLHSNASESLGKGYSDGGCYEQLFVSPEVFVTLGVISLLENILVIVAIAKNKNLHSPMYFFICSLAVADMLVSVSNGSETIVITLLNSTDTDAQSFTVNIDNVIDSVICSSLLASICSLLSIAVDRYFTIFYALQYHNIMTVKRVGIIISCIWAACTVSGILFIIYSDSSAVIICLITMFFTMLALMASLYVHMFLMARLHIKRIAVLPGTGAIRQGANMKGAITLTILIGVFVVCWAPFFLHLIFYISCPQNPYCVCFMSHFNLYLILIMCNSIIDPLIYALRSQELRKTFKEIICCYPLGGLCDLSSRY
How it was run: as §1

Human melanocortin (MC5) = target: T9, Human melanocortin (MC5) (Homo sapiens, UniProt P33032); assay: Radioligand binding, human melanocortin MC5 membranes, FlashPlate, [125I]-NDP-αMSH; conditions: compound at 10 μM, [125I]-NDP-αMSH; for A5: inhibition of radioligand binding: human MC5 membranes
T9 construct: purchased Perkin Elmer Biosignal
T9 sequence (P33032 whole entry): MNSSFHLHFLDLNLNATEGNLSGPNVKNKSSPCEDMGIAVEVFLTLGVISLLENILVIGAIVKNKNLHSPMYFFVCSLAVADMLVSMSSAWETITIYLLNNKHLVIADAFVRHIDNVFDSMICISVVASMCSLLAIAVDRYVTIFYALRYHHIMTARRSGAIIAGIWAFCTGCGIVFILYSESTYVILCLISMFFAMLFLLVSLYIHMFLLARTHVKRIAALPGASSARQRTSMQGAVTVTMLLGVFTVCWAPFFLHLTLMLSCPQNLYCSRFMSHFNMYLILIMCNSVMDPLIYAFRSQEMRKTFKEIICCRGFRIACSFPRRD
How it was run: as §1

Human Melanocortin (MC3) = target: T10, Human Melanocortin (MC3) (Homo sapiens, UniProt P41968); assay: Radioligand binding, human melanocortin MC3 membranes, FlashPlate, [125I]-NDP-αMSH; conditions: compound at 10 μM, [125I]-NDP-αMSH; for A3: inhibition of radioligand binding: human MC3 membranes
T10 construct: purchased Perkin Elmer Biosignal
T10 sequence (P41968 whole entry): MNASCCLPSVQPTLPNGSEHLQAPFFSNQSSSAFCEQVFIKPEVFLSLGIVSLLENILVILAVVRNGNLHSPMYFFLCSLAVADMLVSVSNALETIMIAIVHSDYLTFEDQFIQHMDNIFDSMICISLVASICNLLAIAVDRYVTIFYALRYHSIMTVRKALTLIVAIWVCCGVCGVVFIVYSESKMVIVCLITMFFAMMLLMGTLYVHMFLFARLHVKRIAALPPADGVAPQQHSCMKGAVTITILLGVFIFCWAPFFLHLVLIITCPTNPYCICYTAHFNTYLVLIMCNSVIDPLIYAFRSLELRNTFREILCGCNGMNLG
How it was run: as §1

Human κ-Opioid (KOP) = target: T11, Human κ-Opioid (KOP) (Homo sapiens, UniProt P41145); assay: Radioligand binding, human κ-opioid (KOP) membranes, filtration, [3H]-Diprenorphine; conditions: compound at 10 μM, [3H]-Diprenorphine; for A2: inhibition of radioligand binding: human KOP membranes
T11 construct: purchased Perkin Elmer Biosignal
T11 sequence (P41145 whole entry): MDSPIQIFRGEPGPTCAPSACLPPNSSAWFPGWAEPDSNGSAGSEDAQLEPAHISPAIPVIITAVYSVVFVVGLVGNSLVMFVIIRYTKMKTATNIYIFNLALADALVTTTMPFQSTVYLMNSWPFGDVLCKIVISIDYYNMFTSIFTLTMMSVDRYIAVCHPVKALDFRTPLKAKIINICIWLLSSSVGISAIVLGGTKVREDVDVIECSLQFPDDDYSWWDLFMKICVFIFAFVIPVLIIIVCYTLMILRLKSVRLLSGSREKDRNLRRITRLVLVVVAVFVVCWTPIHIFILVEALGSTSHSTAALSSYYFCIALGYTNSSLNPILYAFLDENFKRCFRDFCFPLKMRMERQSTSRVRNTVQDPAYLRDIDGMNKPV
How it was run: as §2

SMILES | A6: inhibition of radioligand binding [1] | A9: inhibition of radioligand binding [2] | A11: inhibition of radioligand binding (Mouse urotensin (mUR2)) | A8: inhibition of radioligand binding (Human neurokinin (NK1)) | A10: inhibition of radioligand binding (Human opioid (ORL1)) | A1: inhibition of radioligand binding (Human δ-opioid (DOP)) | A7: inhibition of radioligand binding (Human μ-opioid (MOP)) | A4: inhibition of radioligand binding (Human Melanocortin (MC4)) | A5: inhibition of radioligand binding (Human melanocortin (MC5)) | A3: inhibition of radioligand binding (Human Melanocortin (MC3)) | A2: inhibition of radioligand binding (Human κ-Opioid (KOP)) | further results
N=C(N)NCCC(=O)NC1C(OCc2ccc(-c3ccccc3)cc2)OC(COCc2ccccc2)C(O)C1OCc1ccc2ccccc2c1 (stereo not shown) [compound 412] | + (“+” indicates greater than 50% inhibition at 10 μM) | − (“−” indicates less than 50% inhibition at 10 μM) | − (“−” indicates less than 50% inhibition at 10 μM) | + (“+” indicates greater than 50% inhibition at 10 μM) | + (“+” indicates greater than 50% inhibition at 10 μM) | − (“−” indicates less than 50% inhibition at 10 μM) | − (“−” indicates less than 50% inhibition at 10 μM) | + (“+” indicates greater than 50% inhibition at 10 μM) | + (“+” indicates greater than 50% inhibition at 10 μM) | + (“+” indicates greater than 50% inhibition at 10 μM) | − (“−” indicates less than 50% inhibition at 10 μM) | 
NCCC(=O)NC1C(OCc2ccc(Cl)cc2)OC(COCc2ccc(Cl)cc2)C(O)C1OCc1ccccc1 (single isomer, unassigned) [compound 488] |  |  |  |  |  |  |  |  |  |  |  | A6: inhibition of radioligand binding, human melanin-concentrating hormone (MCH1) ([1]; [125I]-S36057): − (“−” indicates less than 50% inhibition at 10 μM); A9: inhibition of radioligand binding, human neuropeptide Y (NPY-Y1) [2]: − (“−” indicates less than 50% inhibition at 10 μM); A11: inhibition of radioligand binding, mouse urotensin (mUR2) (Mouse urotensin (mUR2)): − (“−” indicates less than 50% inhibition at 10 μM); A8: inhibition of radioligand binding, human neurokinin (NK1) (Human neurokinin (NK1); 10 µM): + (“+” indicates greater than 50% inhibition at 10 μM); A10: inhibition of radioligand binding, human opioid (ORL1) (Human opioid (ORL1); 10 µM): + (“+” indicates greater than 50% inhibition at 10 μM); A1: inhibition of radioligand binding, human δ-opioid (DOP) (Human δ-opioid (DOP)): − (“−” indicates less than 50% inhibition at 10 μM); A7: inhibition of radioligand binding, human μ-opioid (MOP) (Human μ-opioid (MOP); 10 µM): − (“−” indicates less than 50% inhibition at 10 μM); A4: inhibition of radioligand binding, human melanocortin (MC4) (Human Melanocortin (MC4); 10 µM): + (“+” indicates greater than 50% inhibition at 10 μM); A5: inhibition of radioligand binding, human melanocortin (MC5) (Human melanocortin (MC5)): + (“+” indicates greater than 50% inhibition at 10 μM); A3: inhibition of radioligand binding, human melanocortin (MC3) (Human Melanocortin (MC3)): − (“−” indicates less than 50% inhibition at 10 μM); A2: inhibition of radioligand binding, human κ-opioid (KOP) (Human κ-Opioid (KOP)): − (“−” indicates less than 50% inhibition at 10 μM)
NCCC(=O)NC1C(OCc2ccc3ccccc3c2)OC(COCc2ccccc2)C(O)C1OCc1ccc(Cl)cc1 (stereo not shown) [compound 382] | − (“−” indicates less than 50% inhibition at 10 μM) | − (“−” indicates less than 50% inhibition at 10 μM) | − (“−” indicates less than 50% inhibition at 10 μM) | + (“+” indicates greater than 50% inhibition at 10 μM) | − (“−” indicates less than 50% inhibition at 10 μM) | − (“−” indicates less than 50% inhibition at 10 μM) | − (“−” indicates less than 50% inhibition at 10 μM) | + (“+” indicates greater than 50% inhibition at 10 μM) | + (“+” indicates greater than 50% inhibition at 10 μM) | − (“−” indicates less than 50% inhibition at 10 μM) | − (“−” indicates less than 50% inhibition at 10 μM) | 
NCCC(=O)N[C@H]1C(OCc2ccc3ccccc3c2)O[C@H](COCc2ccc3ccccc3c2)[C@@H](O)[C@@H]1OCc1ccc(Cl)cc1 (stereo partly shown) [compound 437] | + (“+” indicates greater than 50% inhibition at 10 μM) | − (“−” indicates less than 50% inhibition at 10 μM) | − (“−” indicates less than 50% inhibition at 10 μM) | + (“+” indicates greater than 50% inhibition at 10 μM) | − (“−” indicates less than 50% inhibition at 10 μM) | − (“−” indicates less than 50% inhibition at 10 μM) | − (“−” indicates less than 50% inhibition at 10 μM) | + (“+” indicates greater than 50% inhibition at 10 μM) | + (“+” indicates greater than 50% inhibition at 10 μM) | + (“+” indicates greater than 50% inhibition at 10 μM) | − (“−” indicates less than 50% inhibition at 10 μM) | 
CO[C@H]1[C@H](O)[C@@H](COCc2ccc(-c3ccccc3)cc2)OC(OCCc2ccccc2)[C@@H]1NC(=O)CCNC(=N)N (stereo partly shown) [compound 110] |  |  |  |  |  |  |  |  |  |  |  | A6 radioligand binding, percentage inhibition ([1]; [125I]-S36057): − (“−” indicates less than 50% inhibition at 10 μM); A9 radioligand binding, percentage inhibition [2]: − (“−” indicates less than 50% inhibition at 10 μM); A11 radioligand binding, percentage inhibition (Mouse urotensin (mUR2)): − (“−” indicates less than 50% inhibition at 10 μM); A8 radioligand binding, percentage inhibition (Human neurokinin (NK1)): − (“−” indicates less than 50% inhibition at 10 μM); A10 radioligand binding, percentage inhibition (Human opioid (ORL1)): − (“−” indicates less than 50% inhibition at 10 μM); A1 radioligand binding, percentage inhibition (Human δ-opioid (DOP)): − (“−” indicates less than 50% inhibition at 10 μM); A7 radioligand binding, percentage inhibition (Human μ-opioid (MOP)): − (“−” indicates less than 50% inhibition at 10 μM); A4 radioligand binding, percentage inhibition (Human Melanocortin (MC4)): + (“+” indicates greater than 50% inhibition at 10 μM); A5 radioligand binding, percentage inhibition (Human melanocortin (MC5)): + (“+” indicates greater than 50% inhibition at 10 μM); A3 radioligand binding, percentage inhibition (Human Melanocortin (MC3)): − (“−” indicates less than 50% inhibition at 10 μM); A2 radioligand binding, percentage inhibition (Human κ-Opioid (KOP)): − (“−” indicates less than 50% inhibition at 10 μM)
